SMILES strings stand for the structures. Values joined by “and” are separate entries in the source; they are usually repeats but may differ in a detail not shown here. Equal values may be shown once. Toxic doses and inconclusive results are not listed.

This assay has as its system L1210 leukemia ip in BDF1 mice, survival T/C. Kind of assay: NCI In Vivo Anticancer Drug Screen. Data for tumor model L1210 Leukemia (intraperitoneal) in B6D2F1 (BDF1) mice. To be noted: endpoint: mean survival time, higher = longer survival. A digest of the protocol:
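Tumor cells were implanted, animals were treated, and survival was followed. The result divides the treated measurement by the vehicle-control measurement.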

Setting [1] is: dose: 100.0 mg/kg/injection, schedule: Q04DX003 (ip), vehicle: Klucel (hydroxypropylcellulose) (HPC).
Where [2] appears, read: dose: 200.0 mg/kg/injection, schedule: Q04DX003 (ip), vehicle: Klucel (hydroxypropylcellulose) (HPC).
The mark [3] stands for this setting: dose: 400.0 mg/kg/injection, schedule: Q04DX003 (ip), vehicle: Klucel (hydroxypropylcellulose) (HPC).
[4] abbreviates: dose: 100.0 mg/kg/injection, schedule: Q01DX001 (ip), vehicle: Klucel (hydroxypropylcellulose) (HPC).
[5] abbreviates: dose: 100.0 mg/kg/injection, schedule: Q04DX003 (ip), vehicle: saline with Tween-80.
Setting [6] is: dose: 200.0 mg/kg/injection, schedule: Q01DX001 (ip), vehicle: Klucel (hydroxypropylcellulose) (HPC).
The mark [7] stands for this setting: dose: 200.0 mg/kg/injection, schedule: Q04DX003 (ip), vehicle: saline with Tween-80.
The mark [8] stands for this setting: dose: 400.0 mg/kg/injection, schedule: Q01DX001 (ip), vehicle: Klucel (hydroxypropylcellulose) (HPC).
[9] abbreviates: dose: 400.0 mg/kg/injection, schedule: Q04DX003 (ip), vehicle: saline with Tween-80.
[10] abbreviates: dose: 100.0 mg/kg/injection, schedule: Q01DX009 (ip), vehicle: Klucel (hydroxypropylcellulose) (HPC).
[11] abbreviates: dose: 200.0 mg/kg/injection, schedule: Q01DX009 (ip), vehicle: Klucel (hydroxypropylcellulose) (HPC).
Setting [12] is: dose: 400.0 mg/kg/injection, schedule: Q01DX009 (ip), vehicle: Klucel (hydroxypropylcellulose) (HPC).
[13] abbreviates: dose: 100.0 mg/kg/injection, schedule: Q01DX001 (ip), vehicle: saline.
[14] abbreviates: dose: 200.0 mg/kg/injection, schedule: Q01DX001 (ip), vehicle: saline.
Setting [15] is: dose: 400.0 mg/kg/injection, schedule: Q01DX001 (ip), vehicle: saline.
The mark [16] stands for this setting: dose: 25.0 mg/kg/injection, schedule: Q04DX002 (ip), vehicle: saline.
The mark [17] stands for this setting: dose: 50.0 mg/kg/injection, schedule: Q04DX002 (ip), vehicle: saline.
Where [18] appears, read: dose: 100.0 mg/kg/injection, schedule: Q04DX002 (ip), vehicle: saline.

For the compound `O=C(OCC1OC(n2c(=O)[nH]cc(F)c2=O)C(OC(=O)c2ccccc2)C1OC(=O)c1ccccc1)c1ccccc1` (stereo not given), the T/C (dose: 12.5 mg/kg/injection, schedule: Q01DX005 (ip), vehicle: saline) was 121 % of control; the T/C (dose: 20.0 mg/kg/injection, schedule: Q01DX005 (ip), vehicle: Klucel (hydroxypropylcellulose) (HPC)) is 108 % of control; the T/C (dose: 25.0 mg/kg/injection, schedule: Q01DX005 (ip), vehicle: saline) was 152 % of control; the T/C (dose: 50.0 mg/kg/injection, schedule: Q01DX005 (ip), vehicle: saline) was 196 % of control and 206 % of control; the T/C (dose: 80.0 mg/kg/injection, schedule: Q01DX005 (ip), vehicle: Klucel (hydroxypropylcellulose) (HPC)) was 209 % of control; the T/C (dose: 100.0 mg/kg/injection, schedule: Q01DX005 (ip), vehicle: saline) was 94 % of control. Also, the T/C (dose: 200.0 mg/kg/injection, schedule: Q01DX005 (ip), vehicle: saline) is 93 % of control and 92 % of control.

With `CCOC(=O)c1cnc(SC)nc1NN=C(C)C`, the T/C is 92 % of control under setting [1], 95 % of control under setting [2] and 93 % of control under setting [3].

Consider `OC1COC(OCc2ccccc2)C(O)C1O` (stereo not given), for which the T/C is 101 % of control under setting [4]; 101 % of control under setting [5]; 96 % of control under setting [6]; 100 % of control under setting [7]; 101 % of control under setting [8].

For the compound `O=C(Nc1ccccc1)Nc1ccc([N+](=O)[O-])cc1O`, the T/C under setting [5] is 103 % of control, the T/C under setting [7] was 113 % of control and the T/C under setting [9] is 100 % of control.

Turning to `C/C=C\C(=O)OCC(C)CCC` (stereo not given), the T/C is, setting by setting: (dose: 100.0 mg/kg/injection, schedule: Q04DX002 (ip), vehicle: saline with Tween-80) 97 % of control; (dose: 200.0 mg/kg/injection, schedule: Q04DX002 (ip), vehicle: saline with Tween-80) 102 % of control.

As to `CCOC(=O)C/C(=N\Nc1ccc([N+](=O)[O-])cc1[N+](=O)[O-])c1ccccc1`, the T/C (dose: 100.0 mg/kg/injection, schedule: Q04DX003 (ip), vehicle: saline sonified) was 96 % of control; the T/C (dose: 200.0 mg/kg/injection, schedule: Q04DX003 (ip), vehicle: saline sonified) is 96 % of control; the T/C (dose: 400.0 mg/kg/injection, schedule: Q04DX003 (ip), vehicle: saline sonified) is 91 % of control.

As for `CCOC(=O)C(=CNc1ccccc1)C(=O)OCC`, the T/C runs as follows: under setting [10], 97 % of control; under setting [11], 90 % of control; under setting [12], 97 % of control.

On to `Clc1ccc(/C=C2\c3cc(Cl)ccc3-c3c(Cl)cc(Cl)cc32)cc1`, for which the T/C by setting is: under setting [4], 91 % of control; under setting [10], 91 % of control; under setting [1], 86 % of control; under setting [6], 93 % of control; under setting [11], 90 % of control; under setting [2], 91 % of control. The T/C by setting is: under setting [8], 95 % of control; under setting [12], 86 % of control; under setting [3], 93 % of control.

Regarding `CC1CCCC1OC(=O)c1ccc([N+](=O)[O-])cc1` (stereo not given), the T/C is, setting by setting: (dose: 100.0 mg/kg/injection, schedule: Q01DX001 (ip), vehicle: carboxymethylcellulose (CMC)) 104 % of control; (dose: 200.0 mg/kg/injection, schedule: Q01DX001 (ip), vehicle: carboxymethylcellulose (CMC)) 102 % of control; (dose: 400.0 mg/kg/injection, schedule: Q01DX001 (ip), vehicle: carboxymethylcellulose (CMC)) 93 % of control.

As for `CCOC(=O)CCCN(C(=O)OCc1ccccc1)N(C)C(=O)OCc1ccccc1`, the T/C by setting is: (dose: 25.0 mg/kg/injection, schedule: Q04DX003 (ip), vehicle: saline with Tween-80) 104 % of control; (dose: 50.0 mg/kg/injection, schedule: Q04DX003 (ip), vehicle: saline with Tween-80) 111 % of control; under setting [5], 106 % of control; under setting [7], 104 % of control; under setting [9], 101 % of control.

For the compound `CN(c1ccccc1)c1cc(N)nc(N)n1`, for the setting “dose: 6.0 mg/kg/injection, schedule: Q01DX Z (ip), vehicle: methylcellulose (MC)”, the T/C is 92 % of control.

Take `COc1cccc(-c2ccc(N=N/C(=N/Nc3ccccc3)c3ccccc3)c(OC)c2)c1`: the T/C runs as follows: (dose: 50.0 mg/kg/injection, schedule: Q01DX001 (ip), vehicle: saline) 101 % of control; under setting [13], 95 % of control; under setting [14], 97 % of control; under setting [15], 89 % of control.

Regarding `O=C(COc1cccc(Cl)c1)Nc1ccc(C(=O)CCl)cc1`, the T/C (dose: 100.0 mg/kg/injection, schedule: Q01DX001 (ip), vehicle: gum acacia) was 90 % of control; the T/C (dose: 200.0 mg/kg/injection, schedule: Q01DX001 (ip), vehicle: gum acacia) is 100 % of control; the T/C (dose: 400.0 mg/kg/injection, schedule: Q01DX001 (ip), vehicle: gum acacia) is 99 % of control.

`CC1CCCC/C1=N/NC(N)=O` (stereo not given): the T/C by setting is: under setting [10], 97 % of control; (dose: 100.0 mg/kg/injection, schedule: Q04DX003 (ip), vehicle: saline) 97 % of control; (dose: 200.0 mg/kg/injection, schedule: Q04DX003 (ip), vehicle: saline) 88 % of control; (dose: 400.0 mg/kg/injection, schedule: Q04DX003 (ip), vehicle: saline) 95 % of control.

As to `Cc1ccc(C2(C#N)CCCCC2)cc1`, the T/C was 96 % of control (dose: 100.0 mg/kg/injection, schedule: Q01DX009 (ip), vehicle: saline with Tween-80); 108 % of control under setting [5]; 110 % of control (dose: 200.0 mg/kg/injection, schedule: Q01DX009 (ip), vehicle: saline with Tween-80); 98 % of control under setting [7]; 110 % of control (dose: 400.0 mg/kg/injection, schedule: Q01DX009 (ip), vehicle: saline with Tween-80); 101 % of control under setting [9].

With `Cc1ccnc(N)c1`, the T/C is, setting by setting: (dose: 12.5 mg/kg/injection, schedule: Q04DX002 (ip), vehicle: saline) 114 % of control; under setting [16], 102 % of control; under setting [17], 96 % of control.

Consider `O=C(/C(=C/c1ccccc1)CN1CCOCC1)c1ccccc1`, for which the T/C under setting [1] is 96 % of control.

On to `O=C1c2ccccc2C(=O)c2c1ccc(C1C(=O)c3ccccc3C1=O)c2-c1c(C2C(=O)c3ccccc3C2=O)ccc2c1C(=O)c1ccccc1C2=O`, for which the T/C is, setting by setting: under setting [13], 95 % of control; under setting [14], 95 % of control; under setting [15], 97 % of control.

On to `CC1(C)CCCC2(C)C(O)C3CCC2C31` (stereo not given), for which the T/C by setting is: under setting [4], 96 % of control; under setting [6], 91 % of control; under setting [8], 90 % of control.

In the case of `CC(=O)N=c1ccccn1O`, the T/C is, setting by setting: under setting [18], 96 % of control; (dose: 200.0 mg/kg/injection, schedule: Q04DX002 (ip), vehicle: saline) 105 % of control.

With `C\C(=C/C(=N/N=C/c1ccco1)c1ccccc1)c1ccccc1`, the T/C runs as follows: (dose: 75.0 mg/kg/injection, schedule: Q01DX001 (ip), vehicle: saline) 103 % of control; (dose: 150.0 mg/kg/injection, schedule: Q01DX001 (ip), vehicle: saline) 104 % of control.

For `CC(C)N(C(=O)Nc1cccc(C(F)(F)F)c1)c1ccccc1`, the T/C is 106 % of control under setting [10], 104 % of control under setting [11] and 87 % of control under setting [12].

Consider `CSc1ncnc2c1ncn2N1CCCC1`, for which the T/C was 101 % of control (dose: 75.0 mg/kg/injection, schedule: Q01DX001 (ip), vehicle: other); 97 % of control (dose: 150.0 mg/kg/injection, schedule: Q01DX001 (ip), vehicle: other); 98 % of control (dose: 300.0 mg/kg/injection, schedule: Q01DX001 (ip), vehicle: other).

In the case of `CC(O)C1OC1C(C)O` (stereo not given), the T/C under setting [16] was 93 % of control, the T/C under setting [17] was 101 % of control and the T/C under setting [18] was 112 % of control.

On to `CCOC(=O)c1[nH]c(C)c(/C(=N/NC(N)=O)C(=O)OC)c1C`, for which the T/C by setting is: under setting [4], 103 % of control; under setting [6], 110 % of control; under setting [8], 98 % of control.

With `Cc1ccc(S(=O)(=O)N(c2ccccc2-c2ccccc2)C(C)C(=O)O)cc1` (stereo not given), the T/C by setting is: under setting [13], 98 % of control; under setting [14], 103 % of control; under setting [15], 102 % of control.
